Laboratory results published in patent publication US8802597B2, “Herbicidal pyrimidines” (E I du Pont de Nemours and Company, priority 2003, dated 2014).
Where two headings read alike, the source gives them in different places.

What was measured:
Format in all cases: in vivo
[1] = tested on: Surinam grass (Brachiaria decumbens); assay: Test B pre/postemergence; settings: Urochloa decumbens; for pest or weed control at 125 g/ha: 125 g ai/ha; for pest or weed control at 500 g/ha: 500 g ai/ha
How it was run: (§1)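 Pre: compound (non-phytotoxic solvent + surfactant) applied to freshly planted seeds. Post: same formulation sprayed on 2–18 cm plants, 1- to 4-leaf. Readout: visual control rating 0–100 vs controls, 13–15 d, greenhouse.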

[2] = tested on: barnyardgrass (Echinochloa crus-galli); assay: Test B pre/postemergence; settings: Echinochloa crus-galli; for pest or weed control at 125 g/ha: 125 g ai/ha; for pest or weed control at 500 g/ha: 500 g ai/ha
How it was run: as §1

[3] = tested on: lambsquarters (Chenopodium album); assay: Test B pre/postemergence; settings: Chenopodium album; for pest or weed control at 125 g/ha: 125 g ai/ha; for pest or weed control at 500 g/ha: 500 g ai/ha
How it was run: as §1

[4] = tested on: morningglory (Ipomoea coccinea); assay: Test B pre/postemergence; settings: Ipomoea; for pest or weed control at 125 g/ha: 125 g ai/ha; for pest or weed control at 500 g/ha: 500 g ai/ha
How it was run: as §1

[5] = tested on: velvetleaf (Abutilon theophrasti); assay: Test B pre/postemergence; settings: Abutilon theophrasti; for pest or weed control at 125 g/ha: 125 g ai/ha; for pest or weed control at 500 g/ha: 500 g ai/ha
How it was run: as §1

corn (Zea mays) = assay: Test B pre/postemergence; settings: Zea mays
How it was run: as §1

[6] = tested on: crabgrass (Digitaria sanguinalis); assay: Test B pre/postemergence; settings: Digitaria sanguinalis; for pest or weed control at 125 g/ha: 125 g ai/ha; for pest or weed control at 500 g/ha: 500 g ai/ha
How it was run: as §1

[7] = tested on: giant foxtail (Setaria faberii); assay: Test B pre/postemergence; settings: Setaria faberi; for pest or weed control at 125 g/ha: 125 g ai/ha; for pest or weed control at 500 g/ha: 500 g ai/ha
How it was run: as §1

[8] = tested on: pigweed (Amaranthus retroflexus); assay: Test B pre/postemergence; settings: Amaranthus retroflexus; for pest or weed control at 125 g/ha: 125 g ai/ha; for pest or weed control at 500 g/ha: 500 g ai/ha
How it was run: as §1

[9] = tested on: cocklebur (Xanthium strumarium); assay: Test B pre/postemergence; settings: Xanthium strumarium; for pest or weed control at 125 g/ha: 125 g ai/ha; for pest or weed control at 500 g/ha: 500 g ai/ha
How it was run: as §1

[10] = tested on: wheat (Triticum aestivum); assay: Test B pre/postemergence; settings: Triticum aestivum; for plant injury at 125 g/ha: 125 g ai/ha; for plant injury at 500 g/ha: 500 g ai/ha
How it was run: as §1

[11] = tested on: barnyardgrass (Echinochloa crus-galli); assay: Test B flooded paddy test; settings: Echinochloa crus-galli, Flood, 1000 g ai/ha; scale 0 (no effect) to 100 (complete control); read-out: Plant response rating, Barnyardgrass
How it was run: (§2)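 Rice, umbrella sedge, duck salad and barnyardgrass grown to 2-leaf stage under flooded paddy conditions and treated with formulated test chemicals. Kept in greenhouse 13–15 days, then visually rated against untreated controls on a 0–100 scale (0 no effect, 100 complete control).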

[12] = tested on: duck salad (Heteranthera limosa); assay: Test B flooded paddy test; settings: Heteranthera limosa, Flood, 1000 g ai/ha; scale 0 to 100; read-out: Plant response rating, Ducksalad
How it was run: as §2

[13] = tested on: umbrella sedge (Cyperus difformis); assay: Test B flooded paddy test; settings: Cyperus difformis, Flood, 1000 g ai/ha; scale 0 to 100; read-out: Plant response rating, Sedge, Umbrella
How it was run: as §2

rice (Oryza sativa) = assay: Test B flooded paddy test; settings: Oryza sativa, Flood, 1000 g ai/ha; scale 0 to 100; read-out: Plant response rating, Rice
How it was run: as §2

wild oat (Avena fatua) = assay: Test B postemergence; settings: Avena fatua, post-emergence
How it was run: as §1

[14] = tested on: blackgrass (Alopecurus myosuroides); assay: Test B postemergence; settings: Alopecurus myosuroides, post-emergence
How it was run: as §1

With `CCOC(=O)c1nc(-c2ccccc2)nc(N)c1Br` [Compound 18] the pest or weed control at 125 g/ha ([1]; post-emergence, Postemergence, scale 0 to 100 (0 no effect, 100 complete control), read-out: Surinam Grass plant response rating) was 0%, the pest or weed control at 500 g/ha ([1]; post-emergence, Postemergence, scale 0 to 100, read-out: Plant response rating, Surinam Grass) was 0% and the pest or weed control at 125 g/ha ([1]; pre-emergence, Preemergence, scale 0 to 100 (0 no effect, 100 complete control), read-out: Plant response rating, Surinam Grass) was 0%. For the same compound, the pest or weed control at 500 g/ha ([1]; pre-emergence, Preemergence, scale 0 to 100 (0 no effect, 100 complete control), read-out: Surinam Grass plant response rating) was 0%, the pest or weed control at 125 g/ha ([2]; post-emergence, Postemergence, scale 0 to 100 (0 no effect, 100 complete control), read-out: Barnyardgrass plant response rating) was 0% and the pest or weed control at 500 g/ha ([2]; post-emergence, Postemergence, scale 0 to 100, read-out: Plant response rating, Barnyardgrass) was 0%. It also gave a pest or weed control at 125 g/ha ([2]; pre-emergence, Preemergence, scale 0 to 100 (0 no effect, 100 complete control), read-out: Plant response rating, Barnyardgrass) of 0%, a pest or weed control at 500 g/ha ([2]; pre-emergence, Preemergence, scale 0 to 100 (0 no effect, 100 complete control), read-out: Barnyardgrass plant response rating) of 0% and a pest or weed control at 125 g/ha ([3]; post-emergence, Postemergence, scale 0 to 100 (0 no effect, 100 complete control), read-out: Lambsquarters plant response rating) of 70%. It also gave a pest or weed control at 500 g/ha ([3]; post-emergence, Postemergence, scale 0 to 100, read-out: Plant response rating, Lambsquarters) of 90%, a pest or weed control at 125 g/ha ([3]; pre-emergence, Preemergence, scale 0 to 100 (0 no effect, 100 complete control), read-out: Plant response rating, Lambsquarters) of 10% and a pest or weed control at 500 g/ha ([3]; pre-emergence, Preemergence, scale 0 to 100 (0 no effect, 100 complete control), read-out: Lambsquarters plant response rating) of 60%. The pest or weed control at 125 g/ha ([4]; post-emergence, Postemergence, scale 0 to 100 (0 no effect, 100 complete control), read-out: Morningglory plant response rating) was 20%, the pest or weed control at 500 g/ha ([4]; post-emergence, Postemergence, scale 0 to 100, read-out: Plant response rating, Morningglory) was 70% and the pest or weed control at 125 g/ha ([4]; pre-emergence, Preemergence, scale 0 to 100 (0 no effect, 100 complete control), read-out: Plant response rating, Morningglory) was 0%. The pest or weed control at 500 g/ha ([4]; pre-emergence, Preemergence, scale 0 to 100 (0 no effect, 100 complete control), read-out: Morningglory plant response rating) was 0%, the pest or weed control at 125 g/ha ([5]; post-emergence, Postemergence, scale 0 to 100 (0 no effect, 100 complete control), read-out: Velvetleaf plant response rating) was 20% and the pest or weed control at 500 g/ha ([5]; post-emergence, Postemergence, scale 0 to 100, read-out: Plant response rating, Velvetleaf) was 50%. It also gave a pest or weed control at 125 g/ha ([5]; pre-emergence, Preemergence, scale 0 to 100 (0 no effect, 100 complete control), read-out: Plant response rating, Velvetleaf) of 0%, a pest or weed control at 500 g/ha ([5]; pre-emergence, Preemergence, scale 0 to 100 (0 no effect, 100 complete control), read-out: Velvetleaf plant response rating) of 40% and a plant injury at 125 g/ha (corn (Zea mays); post-emergence, Postemergence, 125 g ai/ha, scale 0 to 100 (0 no effect, 100 complete control), read-out: Corn plant response rating) of 0%. For the same compound, the Corn plant response rating (crop injury, 0 = no effect, 100 = complete kill) at 500 g/ha (corn (Zea mays); post-emergence, Postemergence, 500 g ai/ha, scale 0 to 100) was 0%, the Corn plant response rating (crop injury, 0 = no effect, 100 = complete kill) at 125 g/ha (corn (Zea mays); pre-emergence, Preemergence, 125 g ai/ha, scale 0 to 100 (0 no effect, 100 complete control)) was 0% and the plant injury at 500 g/ha (corn (Zea mays); pre-emergence, Preemergence, 500 g ai/ha, scale 0 to 100 (0 no effect, 100 complete control), read-out: Corn plant response rating) was 0%. The pest or weed control at 125 g/ha ([6]; post-emergence, Postemergence, scale 0 to 100 (0 no effect, 100 complete control), read-out: Crabgrass plant response rating) was 0%, the pest or weed control at 500 g/ha ([6]; post-emergence, Postemergence, scale 0 to 100, read-out: Plant response rating, Crabgrass) was 0% and the pest or weed control at 125 g/ha ([6]; pre-emergence, Preemergence, scale 0 to 100 (0 no effect, 100 complete control), read-out: Plant response rating, Crabgrass) was 0%. The pest or weed control at 500 g/ha ([6]; pre-emergence, Preemergence, scale 0 to 100 (0 no effect, 100 complete control), read-out: Crabgrass plant response rating) was 0%, the pest or weed control at 125 g/ha ([7]; post-emergence, Postemergence, scale 0 to 100 (0 no effect, 100 complete control), read-out: Foxtail, Giant plant response rating) was 0% and the pest or weed control at 500 g/ha ([7]; post-emergence, Postemergence, scale 0 to 100, read-out: Plant response rating, Foxtail, Giant) was 0%. It also gave a pest or weed control at 125 g/ha ([7]; pre-emergence, Preemergence, scale 0 to 100 (0 no effect, 100 complete control), read-out: Plant response rating, Foxtail, Giant) of 0%, a pest or weed control at 500 g/ha ([7]; pre-emergence, Preemergence, scale 0 to 100 (0 no effect, 100 complete control), read-out: Foxtail, Giant plant response rating) of 0% and a pest or weed control at 125 g/ha ([8]; post-emergence, Postemergence, scale 0 to 100 (0 no effect, 100 complete control), read-out: Pigweed plant response rating) of 20%. The pest or weed control at 500 g/ha ([8]; post-emergence, Postemergence, scale 0 to 100, read-out: Plant response rating, Pigweed) was 70%, the pest or weed control at 125 g/ha ([8]; pre-emergence, Preemergence, scale 0 to 100 (0 no effect, 100 complete control), read-out: Plant response rating, Pigweed) was 0% and the pest or weed control at 500 g/ha ([8]; pre-emergence, Preemergence, scale 0 to 100 (0 no effect, 100 complete control), read-out: Pigweed plant response rating) was 70%. The pest or weed control at 125 g/ha ([9]; post-emergence, Postemergence, scale 0 to 100 (0 no effect, 100 complete control), read-out: Cocklebur plant response rating) was 70%, the pest or weed control at 500 g/ha ([9]; post-emergence, Postemergence, scale 0 to 100, read-out: Plant response rating, Cocklebur) was 70% and the pest or weed control at 125 g/ha ([9]; pre-emergence, Preemergence, scale 0 to 100 (0 no effect, 100 complete control), read-out: Plant response rating, Cocklebur) was 10%. The pest or weed control at 500 g/ha ([9]; pre-emergence, Preemergence, scale 0 to 100 (0 no effect, 100 complete control), read-out: Cocklebur plant response rating) was 40%, the plant injury at 125 g/ha ([10]; post-emergence, Postemergence, scale 0 to 100 (0 no effect, 100 complete control), read-out: Wheat plant response rating) was 0% and the plant injury at 500 g/ha ([10]; post-emergence, Postemergence, scale 0 to 100, read-out: Plant response rating, Wheat) was 0%. For the same compound, the plant injury at 125 g/ha ([10]; pre-emergence, Preemergence, scale 0 to 100 (0 no effect, 100 complete control), read-out: Plant response rating, Wheat) was 0%, the plant injury at 500 g/ha ([10]; pre-emergence, Preemergence, scale 0 to 100 (0 no effect, 100 complete control), read-out: Wheat plant response rating) was 0% and the pest or weed control at 1000 g/ha [11] was 0%. It also gave a pest or weed control at 1000 g/ha [12] of 80%, a pest or weed control at 1000 g/ha [13] of 0% and a plant injury at 1000 g/ha (rice (Oryza sativa)) of 0%. It also gave a pest or weed control at 125 g/ha (wild oat (Avena fatua); 125 g ai/ha, scale 0 to 100 (0 no effect, 100 complete control), read-out: Oat, Wild plant response rating) of 0%, a pest or weed control at 500 g/ha (wild oat (Avena fatua); 500 g ai/ha, scale 0 to 100, read-out: Plant response rating, Oat, Wild) of 0% and a pest or weed control at 125 g/ha ([14]; 125 g ai/ha, scale 0 to 100 (0 no effect, 100 complete control), read-out: Blackgrass plant response rating) of 0%. The pest or weed control at 500 g/ha ([14]; 500 g ai/ha, scale 0 to 100, read-out: Plant response rating, Blackgrass) was 0%.
